Reference: patent publication US20260125382A1, “COMPOUNDS FOR INHIBITING OR DEGRADING CDK2 AND/OR CDK9 AND MEDICINAL USE THEREOF” (KOREA RESEARCH INSTITUTE OF CHEMICAL TECHNOLOGY, priority 2022, published 2026)

Columns and labels:
CDK2 = biological target: T1, CDK2 (Homo sapiens, UniProt P24941); test: CDK protein degradation activity (Western blotting), CDK2; type: cell-based; conditions: MDA-MB-231 cells, 16 hours, Western blot
T1 construct: endogenous in cells; host or cells: MDA-MB-231
Outline: (§1)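 MDA-MB-231 cells treated 16 h with compound at 100 nM, 1 μM or 10 μM, with DMSO as control. Lysates run on SDS-PAGE and immunoblotted for CDK2, CDK9 and tubulin; band levels quantified by densitometry.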

CDK9 = biological target: T2, CDK9 (Homo sapiens, UniProt P50750); test: CDK protein degradation activity (Western blotting), CDK9; type: cell-based; conditions: MDA-MB-231 cells, 16 hours, Western blot
T2 construct: endogenous in cells; host or cells: MDA-MB-231
T2 sequence (P50750 whole entry): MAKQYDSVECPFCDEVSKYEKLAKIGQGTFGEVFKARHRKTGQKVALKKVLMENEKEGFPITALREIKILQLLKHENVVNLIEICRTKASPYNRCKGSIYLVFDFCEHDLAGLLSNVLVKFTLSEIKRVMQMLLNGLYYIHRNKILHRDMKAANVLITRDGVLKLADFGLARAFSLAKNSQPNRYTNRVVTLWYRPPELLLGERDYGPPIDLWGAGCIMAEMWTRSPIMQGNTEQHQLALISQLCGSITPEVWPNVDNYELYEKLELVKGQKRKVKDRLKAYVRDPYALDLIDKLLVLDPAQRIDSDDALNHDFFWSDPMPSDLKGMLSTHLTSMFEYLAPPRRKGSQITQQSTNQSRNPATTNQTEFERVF
Outline: as §1

SMILES | Enzyme degradation CDK2 (% remaining) @ 0.1 μM (CDK2) | Enzyme degradation CDK2 (% remaining) @ 1 μM (CDK2) | Enzyme degradation CDK2 (% remaining) @ 10 μM (CDK2) | Enzyme degradation CDK9 (% remaining) @ 0.1 μM (CDK9) | Enzyme degradation CDK9 (% remaining) @ 1 μM (CDK9) | Enzyme degradation CDK9 (% remaining) @ 10 μM (CDK9)
O=C1CC[C@@H](c2ccc(OCC(=O)N3CCC4(CC3)CC(N3CCN(c5ccc(Nc6ncnc7c6ncn7[C@H]6C[C@@H](NC(=O)c7cccc(C(F)(F)F)n7)C6)cc5)CC3)C4)cc2)C(=O)N1 [Compound 439, N-((1s,3s)-3-(6-((4-(4-(7-(2-(4-(2,6-dioxopiperidin-3-yl)phenoxy)acetyl)-7-azaspiro[3.5]nonan-2-yl)piperazin-1-yl)phenyl)amino)-9H-purin-9-yl)cyclobutyl)-6-(trifluoromethyl)picolinamide] | 50/50/50% | 50/50/50% | 50/50/50% | 10/10/10% | 10/10/10% | 10/10/10%
Cc1cccc(C(=O)N[C@H]2C[C@@H](n3cnc4c(NCc5cccc(N6CCN(C(=O)CNc7cccc8c7C(=O)N(C7CCC(=O)NC7=O)C8=O)CC6)c5)ncnc43)C2)n1 (stereo partly drawn) [Compound 130, N-((1s,3s)-3-(6-((3-(4-((2-(2,6-dioxopiperidin-3-yl)-1,3-dioxoisoindolin-4-yl)glycyl)piperazin-1-yl)benzyl)amino)-9H-purin-9-yl)cyclobutyl)-6-methylpicolinamide] | 60% | 40% | 10% | 100% | 40% | 20%
O=C1CCC(N2C(=O)c3ccc(N4CCC(C(=O)N5CCC(CN6CCN(c7ccc(Nc8ncnc9c8ncn9[C@H]8C[C@@H](NC(=O)c9cccc(C(F)(F)F)n9)C8)cc7)CC6)CC5)CC4)cc3C2=O)C(=O)N1 (stereo partly drawn) [Compound 470, N-((1s,3s)-3-(6-((4-(4-((1-(1-(2-(2,6-dioxopiperidin-3-yl)-1,3-dioxoisoindolin-5-yl)piperidin-4-carbonyl)piperidin-4-yl)methyl)piperazin-1-yl)phenyl)amino)-9H-purin-9-yl)cyclobutyl)-6-(trifluoromethyl)picolinamide] | 30/30/30% | 30/30/30% | 30/30/30% | 0/0/0% | 0/0/0% | 0/0/0%
O=C1CC[C@H](N2C(=O)c3ccc(NCC(=O)N4CCC(OCCN5CCN(c6ccc(Nc7ncnc8c7ncn8[C@H]7C[C@@H](NC(=O)Cc8ccccc8)C7)cc6)CC5)CC4)cc3C2=O)C(=O)N1 [Compound 248, N-((1s,3s)-3-(6-((4-(4-(2-((1-((2-(2,6-dioxopiperidin-3-yl)-1,3-dioxoisoindolin-5-yl)glycyl)piperidin-4-yl)oxy)ethyl)piperazin-1-yl)phenyl)amino)-9H-purin-9-yl)cyclobutyl)-2-phenylacetamide] | 50/50/50% | 50/50/50% | 50/50/50% | 50% | 20% | 0%
Cc1cccc(C(=O)NC2CC(n3cnc4c(NC5CCN(C(=O)CC6CCN(C(=O)CNc7cccc8c7C(=O)N([C@H]7CCC(=O)NC7=O)C8=O)CC6)CC5)ncnc43)C2)n1 (stereo partly drawn) [Compound 52, N-((1s,3s)-3-(6-((1-(2-(1-((2-(2,6-dioxopiperidin-3-yl)-1,3-dioxoisoindolin-4-yl)glycyl)piperidin-4-yl)acetyl)piperidin-4-yl)amino)-9H-purin-9-yl)cyclobutyl)-6-methylpicolinamide] | 40% | 40% | 50% | 70% | 30% | 10%
O=C1CC[C@H](N2C(=O)c3ccc(OCC(=O)N4CCC5(CC4)CC(N4CCN(c6ccc(Nc7ncnc8c7ncn8[C@H]7C[C@@H](NC(=O)Cc8ccccc8)C7)cc6)CC4)C5)cc3C2=O)C(=O)N1 [Compound 208, N-((1s,3s)-3-(6-((4-(4-(7-(2-((2-(2,6-dioxopiperidin-3-yl)-1,3-dioxoisoindolin-5-yl)oxy)acetyl)-7-azaspiro[3.5]nonan-2-yl)piperazin-1-yl)phenyl)amino)-9H-purin-9-yl)cyclobutyl)-2-phenylacetamide] | 80% | 70% | 70% | 10% | 0% | 0%
O=C1CC[C@H](N2C(=O)c3ccc(OCC(=O)N4CCC(CN5CCC(c6ccc(Nc7ncnc8c7ncn8C7CC(NC(=O)Cc8ccccc8)C7)cc6)CC5)CC4)cc3C2=O)C(=O)N1 (stereo partly drawn) [Compound 289, N-((1s,3s)-3-(6-((4-(1-((1-(2-((2-(2,6-dioxopiperidin-3-yl)-1,3-dioxoisoindolin-5-yl)oxy)acetyl)piperidin-4-yl)methyl)piperidin-4-yl)phenyl)amino)-9H-purin-9-yl)cyclobutyl)-2-phenylacetamide] | 40% | 60% | 70% | 30% | 0% | 0%
Cc1cccc(C(=O)N[C@H]2C[C@@H](n3cnc4c(Nc5ccc(N6CCN(CC7CCN(C(=O)C8CN(c9ccc%10c(c9)C(=O)N([C@H]9CCC(=O)NC9=O)C%10=O)C8)CC7)CC6)cc5C)ncnc43)C2)n1 [Compound 448, N-((1s,3s)-3-(6-((4-(4-((1-(1-(2-(2,6-dioxopiperidin-3-yl)-1,3-dioxoisoindolin-5-yl)azetidin-3-carbonyl)piperidin-4-yl)methyl)piperazin-1-yl)-2-methylphenyl)amino)-9H-purin-9-yl)cyclobutyl)-6-methylpicolinamide] | 70/70/70% | 70/70/70% | 70/70/70% | 20/20/20% | 20/20/20% | 20/20/20%
O=C1CC[C@H](N2C(=O)c3ccc(N4CC(C(=O)N5CCN(C6CCN(c7ccc(Nc8ncnc9c8ncn9C8CC(NC(=O)Cc9ccccc9)C8)cc7)CC6)CC5)C4)cc3C2=O)C(=O)N1 (stereo partly drawn) [Compound 364, N-((1s,3s)-3-(6-((4-(4-(4-(1-(2-(2,6-dioxopiperidin-3-yl)-1,3-dioxoisoindolin-5-yl)azetidin-3-carbonyl)piperazin-1-yl)piperidin-1-yl)phenyl)amino)-9H-purin-9-yl)cyclobutyl)-2-phenylacetamide] | 100% | 50% | 50% | 70% | 10% | 10%
O=C1CC[C@H](N2C(=O)c3cc(F)c(N4CCN(CCCC5CCN(c6ccc(Nc7ncnc8c7ncn8[C@H]7C[C@@H](NC(=O)Cc8ccccc8)C7)cc6)CC5)CC4)cc3C2=O)C(=O)N1 [Compound 348, N-((1s,3s)-3-(6-((4-(4-(3-(4-(2-(2,6-dioxopiperidin-3-yl)-6-fluoro-1,3-dioxoisoindolin-5-yl)piperazin-1-yl)propyl)piperidin-1-yl)phenyl)amino)-9H-purin-9-yl)cyclobutyl)-2-phenylacetamide] | 30% | 10% | 10% | 80% | 20% | 0%
O=C1CC[C@H](n2nnc3ccc(N4CCN(C5CC6(CCN(c7ccc(Nc8ncnc9c8ncn9C8CC(NC(=O)Cc9ccccc9)C8)cc7)CC6)C5)CC4)cc3c2=O)C(=O)N1 (stereo partly drawn) [Compound 337, N-((1s,3s)-3-(6-((4-(2-(4-(3-(2,6-dioxopiperidin-3-yl)-4-oxo-3,4-dihydrobenzo[d][1,2,3]triazin-6-yl)piperazin-1-yl)-7-azaspiro[3.5]nonan-7-yl)phenyl)amino)-9H-purin-9-yl)cyclobutyl)-2-phenylacetamide] | 0/0/0% | 0/0/0% | 0/0/0% | 50% | 10% | 10%
